Measured values taken from article PMC5477094, “Antiresorptive effect of a cathepsin K inhibitor ONO-5334 and its relationship to BMD increase in a phase II trial for postmenopausal osteoporosis” (BMC Musculoskeletal Disorders, 2017).
Read-outs that look alike come from different tables or passages of the source.

Tests used:
[1] = at 12 h after administration in MAD study, cited from earlier work
[2] = tested on: serum C-telopeptide of type I collagen (sCTX); test: Simulation of sCTX inhibition from plasma ONO-5334 concentrations with sigmoidal Emax model; parameters: species or system human
From the text: PK data from the MAD study and the relationship between plasma ONO-5334 levels and sCTX inhibition in healthy postmenopausal women obtained from the PKPD study were used in simulation of the antiresorptive effect of ONO-5334 [29, 31]. Our previous PK data for 14 days after repeated administration were also used in the simulation. sCTX inhibition for doses and regimens in the OCEAN study were simulated using plasma ONO-5334 levels and the sigmoidal Emax model in the PKPD study (Fig. 1). The sigmoidal Emax model was fitted to data using log-transformed ONO-5334 plasma concentrations and effects on sCTX inhibition, using the following equation [32]. Effect=E0+Emax×C^r/EC50r+C^r

[3] = cited from earlier work
[4] = tested on: serum C-telopeptide of type I collagen (sCTX); parameters: method as in PMID 26188109; details: PKPD study, SR tablets, cited from earlier work
[5] = tested on: postmenopausal women with osteoporosis or osteopenia; parameters: method as in PMID 21312264, PMID 23873670; details: 300 mg QD, OCEAN study; cited from earlier work
Solubility of ONO-5334 = format: physicochemical; details: at acidic pH
[6] = parameters: method as in earlier work; details: at morning on 12 month in the OCEAN study, full analysis set, cited from earlier work
[7] = tested on: postmenopausal women with osteoporosis or osteopenia; test: BMD increase (DXA) in the OCEAN study and linear regression against mean sCTX inhibition over 24 h; format: in vivo, human; details: at 1 year
Description: PK data at 50 mg BID, 100 mg QD and 300 mg QD were used from the 15-day multiple-dosing cohort in a phase 1 study of ONO-5334 IR tablets (MAD study, n = 96). The MAD study was a randomized, double-blind, single-center study conducted at the Kendle Clinical Pharmacology Unit, Utrecht, The Netherlands, from April to November 2006 (EudraCT: not applicable). The sigmoidal relationship (Emax model) between plasma ONO-5334 concentrations and sCTX inhibition was taken from a study using SR tablets of ONO-5334 (PKPD study, n = 10). The PKPD study was a phase 1, 2-part (4- and 2-way crossover), open-label, randomized trial conducted at Pharmaceutical Profiles, Ruddington, Nottingham, United Kingdom, from January 2008 to April 2008 (European Union Clinical Trials Register [EudraCT]: 2007–005206-47). Data for sCTX inhibition and increase in BMD after 1 year of treatment were taken from the OCEAN study (n = 285). […]
The relationship of sCTX inhibition for 24 h and the mean increase in BMD for the lumbar spine (L1-L4) and total hip after 1 year of treatment in the OCEAN study were analyzed. BMD in the OCEAN study was measured using dual-energy X-ray absorptiometry (DXA) (Prodigy, GE Lunar, Madison, WI, USA). […]

[8] = tested on: postmenopausal women with osteoporosis or osteopenia; parameters: method as in PMID 21312264, PMID 23873670; details: OCEAN study, cited from earlier work

- Cmax relative to the concentration required for 99% Emax ([2]; 50 mg BID): 4 times
- Cmax relative to the concentration required for 99% Emax ([2]; 100 mg QD): 14 times
- Cmax relative to the concentration required for 99% Emax ([2]; 300 mg QD): 56 times
- solubility (Solubility of ONO-5334): high
SMILES: C[C@@H]1CS/C(=N\NC(=O)C(=O)[C@@H](NC(=O)C2CCCCCC2)C2CCOCC2)N1C [ONO-5334]
- Plasma ONO-5334 concentration (Mean ± SD) ([1]; 50 mg BID): 1.82 ± 0.33 ng/mL
- Plasma ONO-5334 concentration (Mean ± SD) ([1]; 100 mg QD): 2.74 ± 0.99 ng/mL
- Plasma ONO-5334 concentration (Mean ± SD) ([1]; 300 mg QD): 14.5 ± 6.33 ng/mL
- PK parameters, Cmax and AUC, postprandial administration compared with a fasted state [3]: do not differ significantly
- time for trough plasma ONO-5334 level to reach steady state ([3]; repeated administration, after the first administration, earlier phase I studies): 2 days
- effect span (Emax) of sigmoidal Emax model for sCTX [4]: −54.0%
- half-maximal effective concentration of ONO-5334 (EC50) for sCTX inhibition ([4]; plasma concentration): 2.07 ng/mL
- safety [5]: no safety concerns
- Plasma ONO-5334 concentration (Mean ± SD) ([6]; 50 mg BID): 2.51 ± 1.60 ng/mL
- Plasma ONO-5334 concentration (Mean ± SD) ([6]; 100 mg QD): 4.51 ± 3.26 ng/mL
- Plasma ONO-5334 concentration (Mean ± SD) ([6]; 300 mg QD): 14.4 ± 10.6 ng/mL
- maximum BMD increase (100% Emax for 24 h) calculated by linear regression ([7]; lumbar spine): 4.85%
- maximum BMD increase (100% Emax for 24 h) calculated by linear regression ([7]; total hip): 3.05%
- effect on BMD ([8]; 50 mg BID and 300 mg QD): increased BMD at all measured sites
- efficacy for increasing BMD compared to 50 mg BID and 300 mg QD ([8]; 100 mg QD): less efficacy
